The record followed here is DBAASP.

Test systems include Staphylococcus aureus MR; Escherichia coli D31; Staphylococcus aureus; Escherichia coli; Salmonella typhimurium; Candida albicans; Escherichia coli BL21; Escherichia coli MG1655.
Common to all, as to assay: ≥ marks a high value that may be exact or a test limit, other limits are often not marked, values filed in µg/mL are converted to µM
For test [1], the system named is Bacillus subtilis ATCC 6633.
The subject of test [2] is Klebsiella pneumoniae ATCC 27736.
Test [3] has as its system Pseudomonas aeruginosa ATCC BAA-427.
The test system of test [4] is Staphylococcus aureus NCTC 8325.
Test [5] concerns Escherichia coli ATCC 25922.
For test [6], the system named is Candida albicans ATCC 90028.
Test [7] concerns Pseudomonas aeruginosa PAO1.
Test [8] deals with Streptococcus mutans ATCC 25175.
Test [9] has as its system Staphylococcus aureus ATCC 43300.
The test system of test [10] is Candida albicans ATCC 10231.
For test [11], the system named is Staphylococcus aureus ATCC 25923.
Test [12] concerns Pseudomonas aeruginosa ATCC 15442.
The subject of test [13] is Pseudomonas aeruginosa H1001.
Test [14] deals with Micrococcus luteus ATCC 9341.
Test [15] relates to Staphylococcus epidermidis.

The structures appear in SMILES notation. Converted amounts (≈) assume the structure as drawn.

As a reminder, the MIC is the lowest concentration that inhibits growth of the organism. As for `CC[C@H](C)[C@H](NC(=O)CNC(=O)[C@H](CCCN=C(N)N)NC(=O)[C@H](Cc1ccccc1)NC(=O)[C@@H](NC(=O)[C@H](Cc1cnc[nH]1)NC(=O)[C@H](Cc1cnc[nH]1)NC(=O)[C@H](Cc1ccccc1)NC(=O)[C@@H](N)Cc1ccccc1)[C@@H](C)CC)C(=O)N[C@H](C(=O)N[C@@H](Cc1cnc[nH]1)C(=O)N[C@H](C(=O)NCC(=O)N[C@@H](CCCCN)C(=O)N[C@H](C(=O)N[C@H](C(=O)N[C@@H](Cc1cnc[nH]1)C(=O)N[C@@H](CCCN=C(N)N)C(=O)N[C@@H](CC(C)C)C(=O)N[C@H](C(=O)N[C@H](C(=O)NCC(N)=O)[C@@H](C)O)C(C)C)[C@@H](C)CC)[C@@H](C)O)[C@@H](C)CC)C(C)C` [FFHHIFRGIVHIGKTIHRLVTG], the results for the MIC in [1], in [2] and in [3] were 6 µM (≈ 15.5 µg/mL), 3 µM (≈ 7.76 µg/mL) and 4 µM (≈ 10.3 µg/mL), respectively.
Taken in the same sequence, the figures for `CC[C@H](C)[C@H](NC(=O)CNC(=O)[C@H](CCCN=C(N)N)NC(=O)[C@H](Cc1ccccc1)NC(=O)[C@@H](NC(=O)[C@H](Cc1cnc[nH]1)NC(=O)[C@H](Cc1cnc[nH]1)NC(=O)[C@H](Cc1ccccc1)NC(=O)[C@@H](N)Cc1ccccc1)C(C)C)C(=O)N[C@H](C(=O)N[C@@H](Cc1cnc[nH]1)C(=O)N[C@H](C(=O)NCC(=O)N[C@@H](CCCCN)C(=O)N[C@H](C(=O)N[C@H](C(=O)N[C@@H](Cc1cnc[nH]1)C(=O)N[C@@H](CCCN=C(N)N)C(=O)N[C@@H](CC(C)C)C(=O)N[C@H](C(=O)N[C@H](C(=O)NCC(N)=O)[C@@H](C)O)C(C)C)[C@@H](C)CC)[C@@H](C)O)C(C)C)C(C)C` [FFHHVFRGIVHVGKTIHRLVTG] were 8 µM (≈ 20.5 µg/mL), 6 µM (≈ 15.3 µg/mL) and 12 µM (≈ 30.7 µg/mL).
For `CC(C)C[C@H](NC(=O)[C@@H](NC(=O)[C@H](CCCCN)NC(=O)[C@H](CO)NC(=O)[C@H](CC(C)C)NC(=O)[C@H](CC(C)C)NC(=O)[C@H](CO)NC(=O)[C@H](C)NC(=O)[C@H](CC(C)C)NC(=O)[C@H](Cc1ccccc1)NC(=O)[C@@H]1CCCN1C(=O)[C@H](CC(C)C)NC(=O)[C@@H](N)Cc1ccccc1)C(C)C)C(N)=O` [FLPFLASLLSKVL], in test [4], the MIC was at least 80 µM.
With `CC[C@H](C)[C@@H]1NC(=O)[C@H](C)NC(=O)[C@@H](NC(=O)[C@@H](NC(=O)[C@@H](NC(=O)[C@H](CCCCN)NC(=O)[C@H](C)NC(=O)[C@H](C)NC(=O)[C@H](CCSC)NC(=O)CNC(=O)[C@H](C)NC(=O)[C@@H](NC(=O)[C@@H](NC(=O)[C@@H]2CCCN2C(=O)[C@H](CC(C)C)NC(=O)[C@@H](N)Cc2ccccc2)[C@@H](C)CC)[C@@H](C)CC)C(C)C)[C@@H](C)CC)CSSC[C@@H](C(=O)O)NC(=O)[C@H](CCCCN)NC(=O)[C@H](CCCCN)NC(=O)[C@H]([C@@H](C)O)NC1=O` [FLPIIAGMAAKVICAITKKC], the minimal inhibitory concentration (MIC) in [5] was found to be 50 µM (≈ 104 µg/mL); in test [6], 13 µM (≈ 27.2 µg/mL); in [4], 6 µM (≈ 12.5 µg/mL).
For the molecule `CC[C@H](C)[C@H](NC(=O)[C@H](Cc1cnc[nH]1)NC(=O)[C@H](CCC(N)=O)NC(=O)[C@H](CC(C)C)NC(=O)[C@@H](N)Cc1ccccc1)C(=O)N[C@H](C(=O)NCC(=O)N[C@@H](C)C(=O)N[C@@H](CC(C)C)C(=O)NCC(=O)N[C@@H](CCCCN)C(=O)N[C@@H](CC(C)C)C(=O)N[C@@H](Cc1ccccc1)C(N)=O)[C@@H](C)CC` [FLQHIIGALGKLF], the MIC is 25 µM (≈ 36.4 µg/mL) in [1]; over 100 µM in [7]; 6.2 µM (≈ 9.03 µg/mL) in the test with Staphylococcus aureus MR; 6.2 µM (≈ 9.03 µg/mL) in test [8]; 12.5 µM (≈ 18.2 µg/mL) in [5]; 6.2 µM (≈ 9.03 µg/mL) in [9]. Further, the MIC in the test on Escherichia coli D31 was at least 50 µM; in test [10], 50 µM (≈ 72.8 µg/mL); in test [11] it was 1.6 µM (≈ 2.33 µg/mL); in [12] it was at least 50 µM.
In test [13], `CC[C@H](C)[C@H](N)C(=O)N[C@@H](CCCCN)C(=O)N[C@@H](CC(C)C)C(=O)N[C@@H](CC(C)C)C(=O)N[C@@H](CS)C(=O)N[C@@H](CCCN=C(N)N)C(=O)N[C@H](C(=O)N[C@@H](Cc1cnc[nH]1)C(=O)N[C@@H](CCCCN)C(=O)N[C@@H](CCCCN)C(=O)O)C(C)C` [IKLLCRVHKK] showed an MIC of 10.1 µM (≈ 12.5 µg/mL).
`CC[C@H](C)[C@H](N)C(=O)N[C@@H](CC(C)C)C(=O)N1CCC[C@H]1C(=O)N[C@@H](Cc1c[nH]c2ccccc12)C(=O)N[C@@H](CCCCN)C(=O)N[C@@H](Cc1c[nH]c2ccccc12)C(=O)N1CCC[C@H]1C(=O)N[C@@H](Cc1c[nH]c2ccccc12)C(=O)N[C@@H](Cc1c[nH]c2ccccc12)C(=O)N1CCC[C@H]1C(=O)N[C@@H](C)C(=O)N[C@@H](CCCN=C(N)N)C(=O)N[C@@H](CCCN=C(N)N)C(N)=O` [ILPWKWPWWPARR]: the MIC in test [14] was 1.6 µM (≈ 2.87 µg/mL); in the test on Staphylococcus aureus, 44.6 µM (≈ 80 µg/mL); in the test with Escherichia coli, 2.79 µM (≈ 5 µg/mL); against Salmonella typhimurium, 2.79 µM (≈ 5 µg/mL); against Candida albicans it was 0.0045 µM (≈ 0.00806 µg/mL).
The molecule `NCCCC[C@H](NC(=O)[C@H](Cc1c[nH]c2ccccc12)NC(=O)[C@H](Cc1c[nH]c2ccccc12)NC(=O)[C@@H]1CCCN1C(=O)[C@H](Cc1c[nH]c2ccccc12)NC(=O)[C@@H](N)CCCCN)C(=O)N[C@@H](Cc1c[nH]c2ccccc12)C(=O)N[C@@H](CCCN=C(N)N)C(=O)N[C@@H](CCCN=C(N)N)C(N)=O` [KWPWWKWRR] yielded an MIC in test [13] of at least 87.5 µM.
Same read-out and setting: the figure for `CC[C@H](C)[C@H](NC(=O)[C@H](CCCCN)NC(=O)[C@H](CCCCN)NC(=O)[C@H](Cc1cnc[nH]1)NC(=O)[C@@H](NC(=O)[C@H](CCCN=C(N)N)NC(=O)[C@H](CS)NC(=O)[C@H](CC(C)C)NC(=O)[C@@H](N)CC(C)C)C(C)C)C(=O)N[C@@H](C)C(=O)O` [LLCRVHKKIA] is at least 42.4 µM.
For the molecule `CC[C@H](C)[C@H](NC(=O)[C@H](CCCCN)NC(=O)[C@H](CCCN=C(N)N)NC(=O)[C@H](CCCCN)NC(=O)[C@H](CCCCN)NC(=O)[C@H](CCCCN)NC(=O)[C@H](Cc1c[nH]c2ccccc12)NC(=O)[C@H](CCCCN)NC(=O)[C@H](CC(C)C)NC(=O)[C@H](Cc1c[nH]c2ccccc12)NC(=O)[C@H](CCCN=C(N)N)NC(=O)[C@H](CC(=O)O)NC(=O)[C@H](CCSC)NC(C)=O)C(=O)N[C@@H](CCCN=C(N)N)C(=O)N[C@@H](CCCN=C(N)N)C(=O)N[C@@H](CCCN=C(N)N)C(=O)N[C@@H](CCCN=C(N)N)C(=O)N[C@@H](CCCN=C(N)N)C(=O)N[C@@H](CCCN=C(N)N)C(=O)N[C@@H](CCCN=C(N)N)C(=O)N[C@@H](CCCN=C(N)N)C(=O)N[C@@H](CCCN=C(N)N)C(=O)N[C@@H](CCCN=C(N)N)C(=O)N[C@@H](CCCN=C(N)N)C(N)=O` [MDRWLKWKKKRKIRRRRRRRRRRR], the values for the MIC (in test [15]; against Escherichia coli BL21; against Escherichia coli MG1655) were 4 µM (≈ 14.3 µg/mL), 6 µM (≈ 21.5 µg/mL) and 12 µM (≈ 42.9 µg/mL), respectively.
Take `CC[C@H](C)[C@H](NC(=O)[C@H](CCCN=C(N)N)NC(=O)[C@H](CCCN=C(N)N)NC(=O)[C@@H]1CCCN1C(=O)CNC(=O)[C@H](CCCN=C(N)N)NC(=O)[C@@H]1CCCN1C(=O)[C@H](CCCN=C(N)N)NC(=O)[C@@H]1CCCN1C(=O)[C@H](CC(C)C)NC(=O)[C@H](Cc1ccc(O)cc1)NC(=O)[C@@H]1CCCN1C(=O)[C@@H]1CCCN1C(=O)[C@H](CCCCN)NC(=O)[C@H](CC(=O)O)NC(=O)[C@@H](N)C(C)C)C(=O)N[C@@H](Cc1ccc(O)cc1)C(=O)N[C@@H](CC(N)=O)C(=O)N[C@@H](CCCN=C(N)N)C(=O)NCC(=O)O` [VDKPPYLPRPRGPRRIYNRG]: in test [13], the MIC turned out to be 0.0872 µM (≈ 0.21 µg/mL).
On the same count and under the same terms, in the case of `CC[C@H](C)[C@H](NC(=O)[C@H](CCCN=C(N)N)NC(=O)[C@H](CCCN=C(N)N)NC(=O)[C@@H]1CCCN1C(=O)[C@@H]1CCCN1C(=O)[C@H](CCCN=C(N)N)NC(=O)[C@@H]1CCCN1C(=O)[C@H](CCCN=C(N)N)NC(=O)[C@@H]1CCCN1C(=O)[C@H](CC(C)C)NC(=O)[C@H](Cc1ccc(O)cc1)NC(=O)[C@@H]1CCCN1C(=O)[C@@H]1CCCN1C(=O)[C@H](CCCCN)NC(=O)[C@H](CC(=O)O)NC(=O)[C@@H](N)C(C)C)C(=O)N[C@@H](Cc1ccc(O)cc1)C(=O)N[C@@H](CC(N)=O)C(=O)N[C@@H](Cc1cnc[nH]1)C(=O)NCC(=O)O` [VDKPPYLPRPRPPRRIYNHG] it was 0.123 µM (≈ 0.3 µg/mL).
